Results from patent US20210353624A1, “METHOD OF TREATING CANCER WITH TELOTRISAT OR A PRODRUG THEREOF” (TerSera Therapeutics LLC, priority 2020, published 2021).

Key:
[1] = Physician assessed outcomes in TELEACE subgroup with worsening tumor status at TE initiation; format: in vivo, human
Description: A follow-up analysis of real-world clinical practice experience with TE was initiated in patients with physician-documented worsening tumor status based on radiological reports. The analysis was directed to the subgroup of patients from the TELEACE study with worsening tumor status at the time of TE initiation. Baseline carcinoid syndrome (CS) symptoms, Eastern Cooperative Oncology Group (ECOG) performance status, and weight were compared after at least six months of TE treatment.
A total of 33 patients (17%) in TELEACE had worsened tumor status at the time TE of initiation. The mean patient age was 60 years, with 58% female and 76% white. The majority of these patients had intermediate grade tumor (67%). Prior to TE initiation, 61% had received SSA treatment, and 33% had received other NET treatment, which included liver-directed therapy, surgery, chemotherapy, targeted therapy, and Peptide Receptor Radionuclide Therapy (PRRT). The average duration of TE treatment was 14±10.5 months. […] Additionally, a majority of patients had significant improvement/remained stable in CS symptoms, ECOG performance status, and weight after TE initiation (Table 6).

[2] = tested on: human intrahepatic CCA cells CCLP-1; test: Animal survival in CCLP-1 peritoneal dissemination model; format: in vivo, NOD/SCID mice; conditions: two weeks therapy: gemcitabine 50 mg/kg 2×wk, cisplatin 2.5 mg/kg 2×wk, nab-paclitaxel 5 mg/kg 2×wk, telotristat ethyl 100 mg/kg 5×wk, controls 47 days
Description: The human intrahepatic CCA cells CCLP-1 were cultured in DMEM containing 10% FBS. Animal survival was studied in a peritoneal dissemination model, and a tumor growth study was performed in subcutaneous xenografts using 4-6 weeks old female NOD/SCID mice by injecting 10×10^6 CCLP-1 cells per mouse. Ten days after tumor cell injection, mice were randomized (n=4-7) to receive PBS (control), gemcitabine (50 mg/kg, 2×wk), cisplatin (2.5 mg/kg, 2×wk survival study, 1×wk tumor growth study), nab-paclitaxel (5 mg/kg, 2×wk) or telotristat ethyl (100 mg/kg, 5×wk), for two weeks. In the survival study, mice were monitored daily and euthanized when moribund, and survival was measured from the first day of treatment until death. In the tumor growth study, tumor size was measured twice per week and tumor volume was measured using the formula V=½ (L×W2, with L=length and W=width). Comparative statistics utilized one-way ANOVA, Student's t-test and logrank methods.

Question: What does the source list for `CCOC(=O)[C@@H](N)Cc1ccc(-c2cc(O[C@H](c3ccc(Cl)cc3-n3ccc(C)n3)C(F)(F)F)nc(N)n2)cc1` [telotristat ethyl, (S)-ethyl 2-amino-3-(4-(2-amino-6-((R)-1-(4-chloro-2-(3-methyl-1H-pyrazol-1-yl)phenyl)-2,2,2-trifluoroethoxy)pyrimidin-4-yl)phenyl)propanoate]?
Answer: Diarrhea: Improved ([1]; 33 patients with worsened tumor status at TE initiation, n = 26, P<0.001): 88%; CS symptoms compared to baseline measures ([1]; 33 patients with worsened tumor status, TE treatment 14±10.5 months): each patient experienced improvement in at least one CS symptom; Nausea: Remained the Same ([1]; worsened tumor status subgroup, n = 4): 20%; Nausea: Improved ([1]; worsened tumor status subgroup, n = 4, P=0.432): 80%; Abdominal pain: Remained the Same ([1]; worsened tumor status subgroup, n = 8): 11%; Abdominal pain: Improved ([1]; worsened tumor status subgroup, n = 8, P=0.020): 89%; Flushing: Remained the Same ([1]; worsened tumor status subgroup, n = 14): 18%; Flushing: Improved ([1]; worsened tumor status subgroup, n = 14, P=0.008): 82%; Diarrhea: Remained the Same ([1]; worsened tumor status subgroup, n = 26): 12%; Weight: Remained the Same ([1]; worsened tumor status subgroup, n = 31): 55%; Weight: Improved ([1]; worsened tumor status subgroup, n = 31, P=0.017): 32%; ECOG score: Remained the Same ([1]; worsened tumor status subgroup, n = 33): 73%; ECOG score: Improved ([1]; worsened tumor status subgroup, n = 33, P<0.001): 24%; animal survival [2]: 52 days
